Test results reported in ChEMBL document CHEMBL1144126, “A new insecticidal pyranocyclohexenedione from kunzea ericifolia” (1999).

System: Phaedon cochleariae
Test: Insecticidal activity against mustard beetles at 10 ug after 24 to 48 hrs
Format: functional

SMILES: CC(C)C[C@@H]1C2=C(O[C@@H](C3=C(O)C(C)(C)C(=O)C(C)(C)C3=O)[C@H]1C(C)C)C(C)(C)C(=O)C(C)(C)C2=O [ERICIFOLIONE]
- Activity: 97%
